Tests used:
Assay in all cases: relative viability (nuclei count vs DMSO), 5 days (fraction); higher = more cells survive
Bemcentinib + Pemetrexed = compound: Nc1nc(Nc2ccc3c(c2)CC[C@@H](N2CCCC2)CC3)nn1-c1cc2c(nn1)-c1ccccc1CCC2 [Bemcentinib] + Nc1nc2[nH]cc(CCc3ccc(C(=O)N[C@@H](CCC(=O)O)C(=O)O)cc3)c2c(=O)[nH]1 [Pemetrexed] (partner 0.2 µM)
In short: (§1)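 Values are medians from duplicate plates. Each reflects relative viability, defined as the nuclei count of treated wells over that of vehicle wells. Lung cancer cell lines in 1536-well plates were pin-tool dosed one day after seeding with one drug alone or with a fixed anchor-drug dose plus five library-drug doses (not always all listed) in √10 steps, then fixed, stained and imaged at 4× after 5 days.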

Axitinib + Luminespib = compound: CNC(=O)c1ccccc1Sc1ccc2c(/C=C/c3ccccn3)n[nH]c2c1 [Axitinib] + CCNC(=O)c1noc(-c2cc(C(C)C)c(O)cc2O)c1-c1ccc(CN2CCOCC2)cc1 [Luminespib] (partner 0.01 µM)
In short: as §1

Bemcentinib + Tozasertib = compound: Nc1nc(Nc2ccc3c(c2)CC[C@@H](N2CCCC2)CC3)nn1-c1cc2c(nn1)-c1ccccc1CCC2 [Bemcentinib] + Cc1cc(Nc2cc(N3CCN(C)CC3)nc(Sc3ccc(NC(=O)C4CC4)cc3)n2)n[nH]1 [Tozasertib] (partner 0.1 µM)
In short: as §1

Bemcentinib + Decitabine = compound: Nc1nc(Nc2ccc3c(c2)CC[C@@H](N2CCCC2)CC3)nn1-c1cc2c(nn1)-c1ccccc1CCC2 [Bemcentinib] + Nc1ncn([C@H]2C[C@H](O)[C@@H](CO)O2)c(=O)n1 [Decitabine] (partner 2 µM)
In short: as §1

Cell Line: NCI-H650
- relative viability (Bemcentinib + Pemetrexed; first compound 0.04 µM): 0.843
- relative viability (Bemcentinib + Pemetrexed; first compound 0.1265 µM): 1.06
- relative viability (Bemcentinib + Pemetrexed; first compound 0.4 µM): 1.09
- relative viability (Bemcentinib + Pemetrexed; first compound 1.265 µM): 0.941
- relative viability (Bemcentinib + Pemetrexed; first compound 4 µM): 1.01
- relative viability (Axitinib + Luminespib; first compound 0.005 µM): 0.798
- relative viability (Axitinib + Luminespib; first compound 0.01581 µM): 0.766
- relative viability (Axitinib + Luminespib; first compound 0.05 µM): 0.589
- relative viability (Axitinib + Luminespib; first compound 0.1581 µM): 0.764
- relative viability (Axitinib + Luminespib; first compound 0.5 µM): 0.822
- relative viability (Bemcentinib + Tozasertib; first compound 0.04 µM): 0.715
- relative viability (Bemcentinib + Tozasertib; first compound 0.1265 µM): 0.848
- relative viability (Bemcentinib + Tozasertib; first compound 0.4 µM): 0.798
- relative viability (Bemcentinib + Tozasertib; first compound 1.265 µM): 0.77
- relative viability (Bemcentinib + Tozasertib; first compound 4 µM): 0.718
- relative viability (Bemcentinib + Decitabine; first compound 0.04 µM): 0.269
- relative viability (Bemcentinib + Decitabine; first compound 0.1265 µM): 0.301
- relative viability (Bemcentinib + Decitabine; first compound 0.4 µM): 0.282
- relative viability (Bemcentinib + Decitabine; first compound 1.265 µM): 0.294
- relative viability (Bemcentinib + Decitabine; first compound 4 µM): 0.347
